Measured values as given in patent publication US20260250626A1, “LACTOBACILLUS SALIVARIUS STRAINS AND USES THEREOF” (CHEMO RESEARCH, S.L., priority 2022, published 2026).
Several values for one entry are separate records, joined by “and”; a condition that tells them apart may be missing. Identical values can stand only once. Like-named read-outs stand apart in the source and are kept apart here.

Experiments:
L. salivarius MP98 = assay: Sensitivity to antibiotics by E-test (MIC); assay type: cell-based, Ligilactobacillus salivarius; parameters: MIC value: unit not given here
[1] = Recurrent gout trial: gout episodes and intake of gout-related drugs; assay type: in vivo, human; settings: control group (allopurinol), individual patients 1-15
[2] = human, in vivo; cited from earlier work
[3] = Recurrent gout trial: oxidative stress (OS)-related parameters and NOx in plasma; assay type: in vivo, human
[4] = Recurrent gout trial: blood biochemical parameters (uric acid, lipids, transaminases); assay type: in vivo, human
[5] = drug intake recorded through the study
[6] = control group (allopurinol), individual patients 1-15, plasma, after finishing the study
[7] = control group, before starting the study, individual patients 1-15
[8] = control group, before starting the study, individual patients 1-15, normalized per mg protein
[9] = control group, before starting the study, individual patients 1-15, plasma concentration (µmol/L)
[10] = control group (allopurinol), individual patients 1-15, serum, after finishing the study
[11] = MIC of the antibiotic to L. salivarius MP98, E-test

Compound NC[C@H]1O[C@H](O[C@H]2[C@H](O)[C@@H](O[C@H]3O[C@H](CO)[C@@H](O)[C@H](N)[C@H]3O)[C@H](N)C[C@@H]2N)[C@H](O)[C@@H](O)[C@@H]1O [KAN, kanamycin] has an MIC (L. salivarius MP98; Ligilactobacillus salivarius, MIC of the antibiotic to L. salivarius MP98) of 128 mg/L.
For Oc1ncnc2[nH]ncc12 [allopurinol], the “Gout episodes (during study period)” value [1] was 0 (2×) and 1 (8×) and 2 (4×) and 3, the “Gout episodes (9 previous months)” value ([1]; 9 months before the study (baseline)) was 1 (5×) and 2 (8×) and 0 and 3 and the “Doses Allopurinol” value [1, 5] was 180 (4×) and 175 (2×) and 174 (2×) and 168 and 178 and 179 (2×) and 172 and 176 and 177. The “Doses Colchicin” value [1, 5] was 0 (2×) and 4 (6×) and 8 (3×) and 2 (2×) and 12 and 6, the “Doses ibuprofen and similar AINS” value [1, 5] was 0 (2×) and 8 and 12 (2×) and 6 (4×) and 16 and 4 (2×) and 1 and 3 (2×) and the “patients in gout therapy achieving serum urate levels <6 mg/dl (<0.35 mmol/L)” value [2] was 20-40%. The “8-isoprostaglandin Fzs” value [3, 6] was 166.1 pg/mL and 162.9 pg/mL and 205.9 pg/mL and 164.8 pg/mL and 175.0 pg/mL and 192.4 pg/mL and 204.7 pg/mL and 165.2 pg/mL and 205.1 pg/mL and 207.1 pg/mL and 195.9 pg/mL and 164.5 pg/mL and 186.3 pg/mL and 191.9 pg/mL and 175.8 pg/mL, the “AOPPs” value [3, 6] was 54.87 µmol/L and 57.96 µmol/L and 66.12 µmol/L and 58.27 µmol/L and 62.35 µmol/L and 64.76 µmol/L and 60.56 µmol/L and 57.71 µmol/L and 65.70 µmol/L and 63.68 µmol/L and 60.94 µmol/L and 59.37 µmol/L and 61.97 µmol/L and 64.14 µmol/L and 59.82 µmol/L and the “AOPPs (nmol/mg protein)” value [3, 6] was 0.72 nmol/mg protein and 0.75 nmol/mg protein (2×) and 0.83 nmol/mg protein (2×) and 0.76 nmol/mg protein (2×) and 0.78 nmol/mg protein (2×) and 0.80 nmol/mg protein (2×) and 0.77 nmol/mg protein and 0.82 nmol/mg protein and 0.81 nmol/mg protein (2×). The “MDA” value [3, 6] was 1.78 μmol/L and 1.83 μmol/L and 2.37 μmol/L and 1.84 μmol/L (2×) and 2.14 μmol/L and 2.09 μmol/L and 1.81 μmol/L (2×) and 2.29 μmol/L and 2.22 μmol/L and 2.01 μmol/L and 1.74 μmol/L and 2.27 μmol/L and 2.08 μmol/L, the “NOx” value [3, 6] was 21.32 µmol/L and 19.26 µmol/L and 23.87 µmol/L and 22.75 µmol/L and 21.13 µmol/L and 24.97 µmol/L and 24.59 µmol/L and 22.33 µmol/L and 26.43 µmol/L and 28.07 µmol/L and 24.07 µmol/L and 24.81 µmol/L and 25.79 µmol/L and 25.95 µmol/L and 22.68 µmol/L and the “Nitrate” value [3, 6] was 16.92 µmol/L and 16.86 µmol/L and 28.79 µmol/L and 19.85 µmol/L and 21.04 µmol/L and 23.87 µmol/L and 22.81 µmol/L and 17.40 µmol/L and 26.73 µmol/L and 27.47 µmol/L and 22.10 µmol/L and 17.49 µmol/L and 21.36 µmol/L and 25.27 µmol/L and 20.31 µmol/L. For the same compound, the “Nitrite” value [3, 6] was 1.82 µmol/L and 1.87 µmol/L and 2.29 µmol/L and 1.67 µmol/L and 2.03 µmol/L and 2.24 µmol/L and 2.27 µmol/L and 1.84 µmol/L and 2.02 µmol/L and 2.22 µmol/L and 2.19 µmol/L and 1.77 µmol/L and 2.26 µmol/L and 2.20 µmol/L and 1.88 µmol/L, the “SH groups” value [3, 6] was 429.5 µmol/L and 423.6 µmol/L and 448.1 µmol/L and 429.7 µmol/L and 435.4 µmol/L and 430.2 µmol/L and 431.0 µmol/L and 426.3 µmol/L and 451.8 µmol/L and 436.7 µmol/L and 436.1 µmol/L and 433.4 µmol/L and 436.8 µmol/L and 432.7 µmol/L and 431.3 µmol/L and the “SH groups (nmol/mg protein)” value [3, 6] was 5.19 nmol/mg protein and 5.21 nmol/mg protein and 5.72 nmol/mg protein and 5.41 nmol/mg protein (2×) and 5.42 nmol/mg protein and 5.36 nmol/mg protein and 5.23 nmol/mg protein and 6.02 nmol/mg protein and 5.59 nmol/mg protein and 5.48 nmol/mg protein and 5.47 nmol/mg protein and 5.43 nmol/mg protein and 5.74 nmol/mg protein and 5.52 nmol/mg protein. The “TBARM” value [3, 6] was 22.89 µmol/L and 23.48 µmol/L and 29.92 µmol/L and 27.01 µmol/L and 27.83 µmol/L and 27.59 µmol/L and 29.04 µmol/L and 25.67 µmol/L and 25.91 µmol/L and 28.75 µmol/L and 26.32 µmol/L and 24.81 µmol/L and 27.09 µmol/L and 28.27 µmol/L and 24.86 µmol/L, the “8-isoprostaglandin F2α” value [3, 7] was 161.7 pg/mL and 209.0 pg/mL and 162.6 pg/mL and 177.1 pg/mL and 195.2 pg/mL and 207.3 pg/mL and 160.9 pg/mL and 202.4 pg/mL and 207.5 pg/mL and 194.8 pg/mL and 166.1 pg/mL and 184.9 pg/mL and 195.7 pg/mL and 174.4 pg/mL and 162.2 pg/mL and the MDA [3, 7] was 1.86 μmol/L and 2.41 μmol/L (2×) and 1.78 μmol/L and 2.02 μmol/L and 1.99 μmol/L and 1.92 μmol/L and 1.79 μmol/L and 2.17 μmol/L and 2.09 μmol/L and 1.83 μmol/L and 2.19 μmol/L and 2.00 μmol/L and 1.87 μmol/L and 1.74 μmol/L. The NOx [3, 7] was 19.01 µmol/L and 18.98 µmol/L and 25.67 µmol/L and 21.48 µmol/L and 21.66 µmol/L and 25.18 µmol/L and 24.07 µmol/L and 20.01 µmol/L and 28.23 µmol/L and 27.09 µmol/L and 25.56 µmol/L and 22.29 µmol/L and 26.86 µmol/L and 24.48 µmol/L and 23.16 µmol/L, the Nitrate [3, 7] was 16.85 µmol/L and 16.77 µmol/L and 31.12 µmol/L and 19.64 µmol/L and 22.48 µmol/L and 23.99 µmol/L and 20.29 µmol/L and 16.93 µmol/L and 27.46 µmol/L and 28.65 µmol/L and 20.92 µmol/L and 17.03 µmol/L and 22.52 µmol/L and 24.81 µmol/L and 20.02 µmol/L and the Nitrite [3, 7] was 1.73 μmol/L and 1.81 μmol/L and 2.41 μmol/L and 1.79 μmol/L and 2.12 μmol/L and 2.11 μmol/L (2×) and 2.06 μmol/L and 1.71 μmol/L and 2.14 μmol/L (2×) and 2.27 μmol/L and 1.84 μmol/L and 2.21 μmol/L and 1.92 μmol/L. For the same compound, the TBARM [3, 7] was 22.93 µmol/L and 31.02 µmol/L and 24.76 µmol/L and 26.91 µmol/L and 28.14 µmol/L and 27.31 µmol/L and 24.97 µmol/L and 27.28 µmol/L and 27.99 µmol/L and 27.43 µmol/L and 23.07 µmol/L and 28.11 µmol/L and 28.00 µmol/L and 25.79 µmol/L and 23.16 µmol/L, the AOPPs [3, 8] was 0.74 nmol/mg protein and 0.83 nmol/mg protein and 0.75 nmol/mg protein (2×) and 0.78 nmol/mg protein and 0.81 nmol/mg protein (2×) and 0.77 nmol/mg protein (2×) and 0.73 nmol/mg protein (2×) and 0.84 nmol/mg protein and 0.82 nmol/mg protein and 0.79 nmol/mg protein and 0.80 nmol/mg protein and the SH groups [3, 8] was 5.23 nmol/mg protein and 5.84 nmol/mg protein and 5.37 nmol/mg protein and 5.44 nmol/mg protein and 5.45 nmol/mg protein and 5.39 nmol/mg protein and 5.11 nmol/mg protein and 6.10 nmol/mg protein and 5.54 nmol/mg protein and 5.59 nmol/mg protein and 5.42 nmol/mg protein and 5.48 nmol/mg protein and 5.79 nmol/mg protein and 5.51 nmol/mg protein and 5.14 nmol/mg protein. For the same compound, the AOPPs [3, 9] was 57.87 µmol/L and 65.77 µmol/L and 59.02 µmol/L and 62.29 µmol/L and 64.83 µmol/L and 60.36 µmol/L and 58.95 µmol/L and 65.81 µmol/L and 63.52 µmol/L and 61.07 µmol/L and 59.50 µmol/L and 61.92 µmol/L and 64.34 µmol/L and 59.71 µmol/L and 55.91 µmol/L, the SH groups [3, 9] was 425.7 μmol/L and 442.0 μmol/L and 427.9 μmol/L and 441.5 μmol/L and 432.7 μmol/L (2×) and 433.9 μmol/L and 425.9 μmol/L and 448.3 μmol/L and 434.9 μmol/L (2×) and 438.4 μmol/L and 435.1 μmol/L and 432.2 μmol/L and 426.6 μmol/L and the “GOT (UI/L)” value [4, 10] was 20.05 UI/L and 22.63 UI/L and 37.84 UI/L and 37.28 UI/L and 33.57 UI/L and 27.60 UI/L and 37.24 UI/L and 21.94 UI/L and 40.68 UI/L and 41.07 UI/L and 39.21 UI/L and 31.82 UI/L and 32.99 UI/L and 38.57 UI/L and 32.42 UI/L. For the same compound, the “GPT (UI/L)” value [4, 10] was 19.97 UI/L and 27.46 UI/L and 44.90 UI/L and 27.61 UI/L (2×) and 43.27 UI/L and 53.45 UI/L and 34.73 UI/L and 27.08 UI/L and 59.99 UI/L and 53.87 UI/L and 35.57 UI/L and 39.40 UI/L and 44.47 UI/L and 33.84 UI/L, the “Total cholesterol” value [4, 10] was 172.63 mg/dL and 176.04 mg/dL and 206.72 mg/dL and 196.82 mg/dL and 183.24 mg/dL and 194.32 mg/dL and 176.47 mg/dL and 170.51 mg/dL and 224.95 mg/dL and 199.08 mg/dL and 193.84 mg/dL and 181.94 mg/dL and 178.63 mg/dL and 187.14 mg/dL and 183.02 mg/dL and the “Triglycerides” value [4, 10] was 157.81 mg/dL and 153.17 mg/dL and 169.90 mg/dL and 158.47 mg/dL and 165.58 mg/dL and 164.25 mg/dL and 162.81 mg/dL and 165.45 mg/dL and 189.72 mg/dL and 171.63 mg/dL and 154.57 mg/dL and 165.16 mg/dL and 163.83 mg/dL and 160.02 mg/dL and 168.91 mg/dL. The “Uric acid” value [4, 10] was 7.11 mg/dl and 7.46 mg/dl and 9.68 mg/dl and 8.87 mg/dl and 7.64 mg/dl and 9.61 mg/dl and 8.69 mg/dl and 7.90 mg/dl and 10.92 mg/dl and 10.87 mg/dl and 9.12 mg/dl (2×) and 8.57 mg/dl and 10.49 mg/dl and 9.38 mg/dl, the “any parameter, T1 against T2 samples” value ([4]; control group, 100-300 mg/daily for one year) was “no differences in any parameter” and the GOT [4, 7] was 20.94 UI/L and 24.52 UI/L and 38.57 UI/L and 36.71 UI/L and 35.83 UI/L and 25.11 UI/L and 35.37 UI/L and 21.62 UI/L and 42.75 UI/L and 40.28 UI/L and 37.01 UI/L and 30.17 UI/L and 34.88 UI/L and 39.64 UI/L and 30.53 UI/L. For the same compound, the GPT [4, 7] was 19.32 UI/L and 25.75 UI/L and 47.78 UI/L and 29.19 UI/L and 42.81 UI/L and 55.07 UI/L and 30.64 UI/L and 25.55 UI/L and 54.98 UI/L and 49.91 UI/L and 37.56 UI/L and 30.07 UI/L and 40.39 UI/L and 45.29 UI/L and 30.37 UI/L, the Total cholesterol [4, 7] was 170.45 mg/dl and 179.39 mg/dl and 208.16 mg/dl and 195.37 mg/dl (2×) and 188.31 mg/dl and 192.43 mg/dl and 177.63 mg/dl and 169.04 mg/dl and 229.46 mg/dl and 197.18 mg/dl and 184.41 mg/dl and 176.25 mg/dl and 184.30 mg/dl and 185.19 mg/dl and the Triglycerides [4, 7] was 152.07 mg/dL and 151.28 mg/dL and 172.29 mg/dL and 155.83 mg/dL and 166.74 mg/dL and 162.41 mg/dL and 168.02 mg/dL and 162.33 mg/dL and 187.99 mg/dL and 172.25 mg/dL and 160.86 mg/dL and 162.25 mg/dL and 167.27 mg/dL and 162.91 mg/dL and 168.28 mg/dL. For the same compound, the Uric acid [4, 7] was 7.03 mg/dl and 7.53 mg/dl and 9.97 mg/dl and 8.44 mg/dl (2×) and 7.56 mg/dl and 9.99 mg/dl and 7.81 mg/dl and 10.64 mg/dl and 11.69 mg/dl and 9.20 mg/dl and 8.24 mg/dl and 10.05 mg/dl and 9.92 mg/dl and 9.06 mg/dl.
In the case of Cc1nc(-c2ccc(OCC(C)C)c(C#N)c2)sc1C(=O)O [febuxostat], the “patients in gout therapy achieving serum urate levels <6 mg/dl (<0.35 mmol/L)” value [2] is given as 45-67%.
In the case of gentamycin, the MIC value (L. salivarius MP98; [11]) is reported as 2.
penicillin showed an MIC value (L. salivarius MP98) of 0.25.
Compound virginiamycin has an MIC value (L. salivarius MP98; [11]) of 0.25.
